According to the supplement of paper PMC8149375:

What was measured:
Details in all cases: treatment: drug + dasatinib (fixed dose, not stated); 5 days
CAKI-1 [1] = experiment: GI50 of drug in presence of dasatinib; higher = less potent
Protocol: (§1)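 Primary HTS combination arm: 8 RCC cell lines treated with 8 doses (up to 10 uM) of each library drug plus a fixed dose of dasatinib (dose not stated) for 5 days; viability read by CellTiter-Glo and normalised to DMSO. GI50 was fitted with XLfit, AUC is the area under the dose-response curve, and minimum viability is the lowest fraction of DMSO viability across doses.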

786-O [2] = experiment: as above
Protocol: as §1

SN12C [3] = experiment: as above
Protocol: as §1

UO-31 [4] = experiment: as above
Protocol: as §1

769-P [5] = experiment: as above
Protocol: as §1

A498 [6] = experiment: as above
Protocol: as §1

ACHN [7] = experiment: as above
Protocol: as §1

TK-10 [8] = experiment: as above
Protocol: as §1

CAKI-1 [9] = experiment: minimum viability across doses, drug + dasatinib, relative to DMSO (fraction); higher = less growth inhibition
Protocol: as §1

786-O [10] = experiment: as above
Protocol: as §1

SN12C [11] = experiment: as above
Protocol: as §1

UO-31 [12] = experiment: as above
Protocol: as §1

769-P [13] = experiment: as above
Protocol: as §1

A498 [14] = experiment: as above
Protocol: as §1

ACHN [15] = experiment: as above
Protocol: as §1

TK-10 [16] = experiment: as above
Protocol: as §1

CAKI-1 [17] = experiment: AUC of dose-response viability curve, drug + dasatinib, normalised to DMSO (arbitrary (AUC of normalised viability)); higher = less growth inhibition
Protocol: as §1

786-O [18] = experiment: as above
Protocol: as §1

SN12C [19] = experiment: as above
Protocol: as §1

UO-31 [20] = experiment: as above
Protocol: as §1

769-P [21] = experiment: as above
Protocol: as §1

A498 [22] = experiment: as above
Protocol: as §1

ACHN [23] = experiment: as above
Protocol: as §1

TK-10 [24] = experiment: as above
Protocol: as §1

Row | SMILES | GI50 of drug (CAKI-1 [1]) [nM] | GI50 of drug (786-O [2]) [nM] | GI50 of drug (SN12C [3]) [nM] | GI50 of drug (UO-31 [4]) [nM] | GI50 of drug (769-P [5]) [nM] | GI50 of drug (A498 [6]) [nM] | GI50 of drug (ACHN [7]) [nM] | GI50 of drug (TK-10 [8]) [nM] | minimum viability across doses (CAKI-1 [9]) | minimum viability across doses (786-O [10]) | minimum viability across doses (SN12C [11]) | minimum viability across doses (UO-31 [12]) | minimum viability across doses (769-P [13]) | minimum viability across doses (A498 [14]) | minimum viability across doses (ACHN [15]) | minimum viability across doses (TK-10 [16]) | AUC of dose-response viability curve (CAKI-1 [17]) | AUC of dose-response viability curve (786-O [18]) | AUC of dose-response viability curve (SN12C [19]) | AUC of dose-response viability curve (UO-31 [20]) | AUC of dose-response viability curve (769-P [21]) | AUC of dose-response viability curve (A498 [22]) | AUC of dose-response viability curve (ACHN [23]) | AUC of dose-response viability curve (TK-10 [24])
1 | COc1ccc(-c2ccc3c(N4CCOC[C@@H]4C)nc(N4CCOC[C@@H]4C)nc3n2)cc1CO [AZD8055] + Cc1nc(Nc2ncc(C(=O)Nc3c(C)cccc3Cl)s2)cc(N2CCN(CCO)CC2)n1 [dasatinib] | 24 | 7.26 | 39.8 | 65.2 | 59.9 | 100 | < 3 | 36.9 | 0.0255 | 0.018 | 0.135 | 0.00778 | 0.0691 | 0.182 | 0.044 | 0.053 | 0.988 | 0.846 | 1.3 | 1.29 | 1.22 | 1.68 | 0.585 | 1.21
2 | CN(C)C/C=C/C(=O)Nc1cc2c(Nc3ccc(F)c(Cl)c3)ncnc2cc1O[C@H]1CCOC1 [Afatinib (BIBW2992)] + Cc1nc(Nc2ncc(C(=O)Nc3c(C)cccc3Cl)s2)cc(N2CCN(CCO)CC2)n1 [dasatinib] | 241 | 953 | 2300 | 885 | 29.1 | 1490 | 4.16 | 72.5 | 0.0121 | 0.00818 | 0.0274 | 0.00619 | 0.0233 | 0.00955 | 0.00184 | 0.0817 | 1.57 | 1.92 | 2.02 | 1.88 | 1.31 | 2.54 | 1.02 | 1.58
3 | S=C(NCc1ccc2c(c1)OCO2)N1CCN(c2ncnc3c2oc2ccccc23)CC1 [Amuvatinib (MP-470)] + Cc1nc(Nc2ncc(C(=O)Nc3c(C)cccc3Cl)s2)cc(N2CCN(CCO)CC2)n1 [dasatinib] | > 10000 | 1310 | 1970 | 2680 | 1830 | 4380 | 1390 | 2920 | 0.57 | 0.0475 | 0.0599 | 0.0639 | 0.282 | 0.245 | 0.156 | 0.263 | 2.31 | 1.94 | 2.03 | 3.23 | 2.2 | 3.02 | 1.9 | 2.39
4 | S=C(NCc1ccc2c(c1)OCO2)N1CCN(c2ncnc3c2oc2ccccc23)CC1 [Amuvatinib (MP-470)_R2] + Cc1nc(Nc2ncc(C(=O)Nc3c(C)cccc3Cl)s2)cc(N2CCN(CCO)CC2)n1 [dasatinib] | > 10000 | 1240 | 1630 | 2840 | 2550 | 3370 | 1230 | 2640 | 0.583 | 0.0149 | 0.0319 | 0.0367 | 0.219 | 0.251 | 0.17 | 0.26 | 2.48 | 1.87 | 2.06 | 3.36 | 2.38 | 2.86 | 1.85 | 2.24
5 | CS(=O)(=O)O.N#CC1(c2ccc(NC(=O)c3cccnc3NCc3ccncc3)cc2)CCCC1 [Apatinib (YN968D1)] + Cc1nc(Nc2ncc(C(=O)Nc3c(C)cccc3Cl)s2)cc(N2CCN(CCO)CC2)n1 [dasatinib] | > 10000 | > 10000 | > 10000 | > 10000 | 9470 | > 10000 | 6530 | > 10000 | 0.572 | 0.624 | 0.656 | 0.988 | 0.49 | 0.874 | 0.389 | 0.636 | 2.39 | 2.64 | 2.45 | 4.78 | 2.43 | 3.76 | 2.18 | 2.5
6 | O=C1C(=O)N(Cc2ccc(Cl)c(Cl)c2)c2ccccc21 [Apoptosis Activator 2] + Cc1nc(Nc2ncc(C(=O)Nc3c(C)cccc3Cl)s2)cc(N2CCN(CCO)CC2)n1 [dasatinib] | 2230 | > 10000 | 4600 | 9070 | 8610 | 8370 | 1990 | 7390 | 0.187 | 0.0758 | 0.265 | 0.211 | 0.486 | 0.411 | 0.295 | 0.454 | 2.19 | 1.72 | 2.47 | 4.31 | 2.46 | 3.56 | 1.92 | 2.34
7 | CCN1CCN(C(=O)Cc2ccc(Nc3ncc(F)c(Nc4ccc(C(=O)Nc5ccccc5Cl)cc4)n3)cc2)CC1 [Aurora A Inhibitor I] + Cc1nc(Nc2ncc(C(=O)Nc3c(C)cccc3Cl)s2)cc(N2CCN(CCO)CC2)n1 [dasatinib] | 281 | 164 | 1190 | 552 | 652 | 8980 | 130 | 1010 | 0.00201 | 0.0991 | 0.00416 | 0.0547 | 0.0246 | 0.53 | 0.0307 | 0.275 | 1.63 | 1.57 | 2.09 | 2.58 | 1.98 | 3.16 | 1.53 | 2.18
8 | CNC(=O)c1ccccc1Sc1ccc2c(/C=C/c3ccccn3)n[nH]c2c1 [Axitinib] + Cc1nc(Nc2ncc(C(=O)Nc3c(C)cccc3Cl)s2)cc(N2CCN(CCO)CC2)n1 [dasatinib] | 439 | > 10000 | 622 | 7850 | 1400 | 7690 | 2980 | > 10000 | 0.162 | 0.635 | 0.262 | 0.392 | 0.159 | 0.457 | 0.271 | 0.715 | 1.8 | 2.8 | 2.08 | 3.37 | 2.02 | 3.26 | 2.14 | 2.91
9 | Cn1c(=O)n(-c2ccc(C(C)(C)C#N)cc2)c2c3cc(-c4cnc5ccccc5c4)ccc3ncc21 [BEZ235 (NVP-BEZ235)] + Cc1nc(Nc2ncc(C(=O)Nc3c(C)cccc3Cl)s2)cc(N2CCN(CCO)CC2)n1 [dasatinib] | 73.7 | 81.3 | 164 | 129 | 59.6 | 152 | 34.7 | 306 | 0.0361 | 0.0643 | 0.146 | 0.00603 | 0.0926 | 0.0638 | 0.0631 | 0.122 | 1.35 | 1.44 | 1.63 | 1.66 | 1.35 | 1.65 | 1.23 | 1.84
10 | CCN1CCN(c2ccc(Nc3cc(N(C)C(=O)Nc4c(Cl)c(OC)cc(OC)c4Cl)ncn3)cc2)CC1 [BGJ398 (NVP-BGJ398)] + Cc1nc(Nc2ncc(C(=O)Nc3c(C)cccc3Cl)s2)cc(N2CCN(CCO)CC2)n1 [dasatinib] | 26.6 | 990 | 131 | 1260 | 2890 | 9590 | 26.6 | 1350 | 0.0483 | 0.249 | 0.0804 | 0.00819 | 0.234 | 0.435 | 0.0494 | 0.221 | 1.15 | 1.97 | 1.66 | 2.64 | 2.3 | 2.87 | 1.29 | 2.18
11 | CC[C@@H]1C(=O)N(C)c2cnc(Nc3ccc(C(=O)N[C@H]4CC[C@H](N5CCN(CC6CC6)CC5)CC4)cc3OC)nc2N1C(C)C [BI6727 (Volasertib)] + Cc1nc(Nc2ncc(C(=O)Nc3c(C)cccc3Cl)s2)cc(N2CCN(CCO)CC2)n1 [dasatinib] | 55.2 | 10.5 | 58.6 | 151 | 43.2 | 138 | 27.8 | 160 | 0.00782 | 0.0043 | 0.0772 | 0.0151 | 0.0202 | 0.0361 | 0.00653 | 0.00827 | 1.25 | 0.664 | 1.37 | 2.02 | 1.16 | 1.83 | 1.13 | 1.61
12 | CC[C@@H]1C(=O)N(C)c2cnc(Nc3ccc(C(=O)NC4CCN(C)CC4)cc3OC)nc2N1C1CCCC1 [BI 2536] + Cc1nc(Nc2ncc(C(=O)Nc3c(C)cccc3Cl)s2)cc(N2CCN(CCO)CC2)n1 [dasatinib] | 7.85 | 8.79 | 32.1 | 61.4 | 56.8 | 38.4 | 4.47 | 405 | 0.0866 | 0.0183 | 0.052 | 0.0114 | 0.0343 | 0.0692 | 0.0392 | 0.0551 | 0.981 | 0.643 | 1.24 | 1.3 | 1.28 | 1.51 | 0.778 | 1.68
13 | COC(=O)c1ccc2c(c1)NC(=O)/C2=C(\Nc1ccc(N(C)C(=O)CN2CCN(C)CC2)cc1)c1ccccc1 [BIBF1120 (Vargatef)] + Cc1nc(Nc2ncc(C(=O)Nc3c(C)cccc3Cl)s2)cc(N2CCN(CCO)CC2)n1 [dasatinib] | 430 | > 10000 | 2620 | 1730 | > 10000 | > 10000 | 147 | > 10000 | 0.125 | 0.694 | 0.412 | 0.128 | 0.656 | 0.664 | 0.23 | 0.637 | 1.77 | 2.98 | 2.3 | 2.64 | 2.47 | 3.35 | 1.73 | 2.88
